Patent US5912161A, “Enzymes for the production of 2-keto-L-gulonic acid” (priority 1996, dated 1999)

Assays:
[1] = molecular target: T1, Corynebacterium sp. (ATCC 31090) 2,5-DKG reductase A, wild type, SEQ ID NO:1 (Corynebacterium sp., UniProt P06632); experiment: Kinetic characterization of purified wild-type 2,5-DKG reductase A (NADPH oxidation at 340 nm); assay type: biochemical; settings: wild-type enzyme, 50 mM tris, pH 7.0, 0.2 mM NADPH, 25° C.
T1 construct: made in house; host or cells: Acetobacter cerinus
Description: (§1) The preparations of wild-type and mutant Q192R 2,5-DKG reductase A enzymes were characterized kinetically as to their ability to reduce the substrate 2,5-DKG to 2-KLG. Assays were done in 1 ml total volume of 50 mM tris, pH 7.0, containing 0.2 mM NADPH, a constant amount of enzyme ([…]) and amounts of substrate varying from 2 to 14 mM. The assays were done at 25° C., and the rate of substrate reduction was measured spectrophotometrically by measuring the loss of absorbance at 340 nm wavelength (which is indicative of the oxidation of the cofactor NADPH to NADP+).
(§2) The data were analyzed according to the well-known Michaelis equation to determine the kinetic parameters Vmax and Km using the Enzfit software package (Biosoft, Cambridge, UK) on a Epson desktop computer.

[2] = molecular target: T2, Corynebacterium sp. 2,5-DKG reductase A mutant Q192R (arginine for glutamine at position 192) (Corynebacterium sp., UniProt P06632, Q192R); experiment: Kinetic characterization of purified mutant Q192R 2,5-DKG reductase A (NADPH oxidation at 340 nm); assay type: biochemical; settings: 50 mM tris, pH 7.0, 0.2 mM NADPH, 25° C.
T2 construct: made in house; host or cells: Acetobacter cerinus
Description: as §1, §2

T2 sequence (P06632 whole entry Q192R): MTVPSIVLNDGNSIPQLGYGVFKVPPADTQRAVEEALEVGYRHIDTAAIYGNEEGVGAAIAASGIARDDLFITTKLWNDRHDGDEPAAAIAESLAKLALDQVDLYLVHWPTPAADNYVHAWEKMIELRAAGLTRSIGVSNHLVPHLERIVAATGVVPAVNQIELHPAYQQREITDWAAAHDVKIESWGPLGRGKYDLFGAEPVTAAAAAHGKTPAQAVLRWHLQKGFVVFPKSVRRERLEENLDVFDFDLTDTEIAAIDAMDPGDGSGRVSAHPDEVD
T1 sequence (P06632 whole entry): as the sequence (P06632 whole entry Q192R) above, with R192Q counted along it

Question: Which “specificity constant (kcat/Km)” value [1] does the source give for `O=C(O)C(=O)[C@@H](O)[C@H](O)C(=O)CO` [2,5-DKG, 2,5-diketo-D-gluconic acid] here?
Answer: 140 M⁻¹ s⁻¹

Question: And the “Vmax for the 2,5-DKG substrate” value ([1]; substrate 2 to 14 mM)?
Answer: 7.8 μmoles per minute per milligram of protein

Question: And the Km ([1]; substrate 2 to 14 mM, read-out: Km or Michaelis constant)?
Answer: 28 mM

Question: And the “specificity constant (kcat/Km)” value [2]?
Answer: 335 M⁻¹ s⁻¹

Question: And the Km ([2]; substrate 2 to 14 mM)?
Answer: 21 mM

Question: What about the “Vmax for the 2,5-DKG substrate” value ([2]; substrate 2 to 14 mM) of the same molecule?
Answer: 14.0 μmoles per minute per milligram of protein
